Data as given in PubChem BioAssay AID248 (DTP/NCI, 2004).
Several values for one entry are separate records, joined by “and”; a condition that tells them apart may be missing. Identical values can stand only once. Toxic doses and inconclusive results are not listed. Rule as the data show it: active = T/C of 150% or more; inactive = T/C below 125%.

Test system: L1210 leukemia ip in BDF1 mice, survival T/C
Experiment: NCI In Vivo Anticancer Drug Screen. Data for tumor model L1210 Leukemia (intraperitoneal) in B6D2F1 (BDF1) mice
Settings: endpoint: mean survival time, higher = longer survival
Method in brief: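 Ratio derived from survival: compound-dosed mice over vehicle-dosed mice, all bearing a transplantable tumor.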

[1] = dose: 100.0 mg/kg/injection, schedule: Q04DX003 (ip), vehicle: Klucel (hydroxypropylcellulose) (HPC)
[2] = dose: 200.0 mg/kg/injection, schedule: Q04DX003 (ip), vehicle: Klucel (hydroxypropylcellulose) (HPC)
[3] = dose: 50.0 mg/kg/injection, schedule: Q01DX009 (ip), vehicle: saline
[4] = dose: 100.0 mg/kg/injection, schedule: Q01DX009 (ip), vehicle: saline
[5] = dose: 100.0 mg/kg/injection, schedule: Q04DX003 (ip), vehicle: saline
[6] = dose: 200.0 mg/kg/injection, schedule: Q04DX003 (ip), vehicle: saline
[7] = dose: 400.0 mg/kg/injection, schedule: Q04DX003 (ip), vehicle: saline
[8] = dose: 100.0 mg/kg/injection, schedule: Q04DX002 (ip), vehicle: Klucel (hydroxypropylcellulose) (HPC)
[9] = dose: 200.0 mg/kg/injection, schedule: Q04DX002 (ip), vehicle: Klucel (hydroxypropylcellulose) (HPC)

Measured: T/C

O=S(=O)(O)Nc1cccc(Cl)c1
inactive: dose: 100.0 mg/kg/injection, schedule: Q04DX002 (ip), vehicle: saline with Tween-80 100 % of control | dose: 200.0 mg/kg/injection, schedule: Q04DX002 (ip), vehicle: saline with Tween-80 111 % of control | dose: 400.0 mg/kg/injection, schedule: Q04DX002 (ip), vehicle: saline with Tween-80 88 % of control

COC1OC2COC(C)(C)OC2C1OS(=O)(=O)c1ccc(C)cc1 (stereo not given)
inactive: dose: 100.0 mg/kg/injection, schedule: Q01DX001 (ip), vehicle: carboxymethylcellulose (CMC) 104 % of control | dose: 200.0 mg/kg/injection, schedule: Q01DX001 (ip), vehicle: carboxymethylcellulose (CMC) 96 % of control | dose: 400.0 mg/kg/injection, schedule: Q01DX001 (ip), vehicle: carboxymethylcellulose (CMC) 107 % of control

C=CCOP(=O)(N1CC1CC)N1CC1CC (stereo not given)
inactive: dose: 10.0 mg/kg/injection, schedule: Q01DX015 (ip), vehicle: saline 103 % of control | dose: 20.0 mg/kg/injection, schedule: Q01DX015 (ip), vehicle: saline 96 % of control | dose: 40.0 mg/kg/injection, schedule: Q01DX015 (ip), vehicle: saline 102 % of control | dose: 80.0 mg/kg/injection, schedule: Q01DX015 (ip), vehicle: saline 108 % of control

CCCOc1ccc(Nc2c3ccccc3nc3ccccc23)cc1
inactive: [1] 102 % of control | [2] 96 % of control

CC(=O)Nc1ccc2nc3ccc(NC(C)=O)cc3[n+](-c3ccccc3)c2c1
inactive: dose: 0.25 mg/kg/injection, schedule: Q01DX Z (ip), vehicle: methylcellulose (MC) 105 % of control | dose: 0.5 mg/kg/injection, schedule: Q01DX Z (ip), vehicle: methylcellulose (MC) 121 % of control | dose: 0.75 mg/kg/injection, schedule: Q01DX009 (ip), vehicle: saline 111 % of control | dose: 1.25 mg/kg/injection, schedule: Q#A X Z (ip), vehicle: saline 89 % of control | dose: 1.5 mg/kg/injection, schedule: Q01DX009 (ip), vehicle: saline 114 % of control | dose: 2.5 mg/kg/injection, schedule: Q01DX Z (ip), vehicle: saline 98 % of control | dose: 2.5 mg/kg/injection, schedule: Q#A X Z (ip), vehicle: saline 109 % of control | dose: 3.0 mg/kg/injection, schedule: Q01DX009 (ip), vehicle: saline 122 % of control | dose: 4.4 mg/kg/injection, schedule: Q07DX Z (ip), vehicle: saline 105 % of control | dose: 5.0 mg/kg/injection, schedule: Q01DX Z (ip), vehicle: saline 118 % of control | dose: 5.0 mg/kg/injection, schedule: Q#A X Z (ip), vehicle: saline 123 % of control | dose: 6.0 mg/kg/injection, schedule: Q01DX009 (ip), vehicle: saline 120 % of control | dose: 7.5 mg/kg/injection, schedule: Q03DX Z (ip), vehicle: saline 111 % of control | dose: 8.8 mg/kg/injection, schedule: Q07DX Z (ip), vehicle: saline 110 % of control | dose: 10.0 mg/kg/injection, schedule: Q01DX009 (sc), vehicle: propolene glycol 97 % of control | dose: 15.0 mg/kg/injection, schedule: Q03DX Z (ip), vehicle: saline 118 % of control | dose: 17.5 mg/kg/injection, schedule: Q07DX Z (ip), vehicle: saline 115 % of control | dose: 20.0 mg/kg/injection, schedule: Q01DX010 (sc), vehicle: propolene glycol 96 % of control | dose: 20.0 mg/kg/injection, schedule: Q01DX Z (ip), vehicle: saline 123 % of control | dose: 40.0 mg/kg/injection, schedule: Q01DX010 (sc), vehicle: propolene glycol 102 % of control | dose: 50.0 mg/kg/injection, schedule: Q01DX Z (ip), vehicle: methylcellulose (MC) 100 % of control | dose: 64.0 mg/kg/injection, schedule: Q01DX010 (iv), vehicle: saline 97 % of control | dose: 80.0 mg/kg/injection, schedule: Q01DX009 (oral), vehicle: propolene glycol 98 % of control | dose: 80.0 mg/kg/injection, schedule: Q01DX009 (sc), vehicle: propolene glycol 95 % of control | dose: 120.0 mg/kg/injection, schedule: Q01DX009 (oral), vehicle: propolene glycol 98 % of control | dose: 128.0 mg/kg/injection, schedule: Q01DX010 (iv), vehicle: saline 102 % of control | dose: 175.0 mg/kg/injection, schedule: Q01DX001 (ip), vehicle: saline 105 % of control | dose: 222.0 mg/kg/injection, schedule: Q01DX Z (oral), vehicle: saline 116 % of control | dose: 256.0 mg/kg/injection, schedule: Q01DX010 (iv), vehicle: saline 108 % of control | dose: 265.0 mg/kg/injection, schedule: Q01DX001 (ip), vehicle: saline 108 % of control | dose: 270.0 mg/kg/injection, schedule: Q01DX009 (oral), vehicle: propolene glycol 98 % of control | dose: 333.0 mg/kg/injection, schedule: Q01DX Z (oral), vehicle: saline 120 % of control | dose: 405.0 mg/kg/injection, schedule: Q01DX009 (oral), vehicle: propolene glycol 102 % of control | dose: 480.0 mg/kg/injection, schedule: Q03DX Z (ip), vehicle: saline 112 % of control | dose: 960.0 mg/kg/injection, schedule: Q03DX Z (ip), vehicle: saline 86 % of control
active: dose: 10.0 mg/kg/injection, schedule: Q01DX015 (ip), vehicle: propolene glycol 152 % of control | dose: 12.5 mg/kg/injection, schedule: Q01DX Z (ip), vehicle: methylcellulose (MC) 150 % of control | dose: 20.0 mg/kg/injection, schedule: Q#A X Z (ip), vehicle: saline 180 % of control | dose: 25.0 mg/kg/injection, schedule: Q01DX Z (ip), vehicle: methylcellulose (MC) 166 % of control | dose: 31.25 mg/kg/injection, schedule: Q01DX009 (ip), vehicle: saline 164 % of control | dose: 31.3 mg/kg/injection, schedule: Q01DX009 (ip), vehicle: saline 161 % of control | dose: 40.0 mg/kg/injection, schedule: Q01DX015 (ip), vehicle: propolene glycol 172 % of control | dose: 40.0 mg/kg/injection, schedule: Q01DX Z (ip), vehicle: saline 172 % of control | [3] 162 % of control | [4] 206 % of control | dose: 120.0 mg/kg/injection, schedule: Q03DX Z (ip), vehicle: saline 159 % of control

CCN(CC)Cc1cc(Nc2c3ccc([N+](=O)[O-])cc3nc3ccc(OC)cc23)ccc1O
inactive: [3] 95 % of control | [4] 98 % of control and 100 % of control | [5] 95 % of control | dose: 200.0 mg/kg/injection, schedule: Q01DX009 (ip), vehicle: saline 95 % of control and 109 % of control | [6] 95 % of control | dose: 400.0 mg/kg/injection, schedule: Q01DX009 (ip), vehicle: saline 97 % of control | [7] 90 % of control

CC1(CS(=O)(=O)c2ccccc2)C(=O)C2CCC1C2 (stereo not given)
inactive: dose: 100.0 mg/kg/injection, schedule: Q01DX001 (ip), vehicle: saline 90 % of control | [5] 94 % of control | dose: 200.0 mg/kg/injection, schedule: Q01DX001 (ip), vehicle: saline 98 % of control | [6] 89 % of control | dose: 400.0 mg/kg/injection, schedule: Q01DX001 (ip), vehicle: saline 88 % of control | [7] 98 % of control

Cc1ncc(C(O)c2ccc(N(C)C)cc2)n1Cc1ccccc1 (stereo not given)
inactive: dose: 100.0 mg/kg/injection, schedule: Q01DX001 (ip), vehicle: Klucel (hydroxypropylcellulose) (HPC) 95 % of control | dose: 100.0 mg/kg/injection, schedule: Q01DX009 (ip), vehicle: Klucel (hydroxypropylcellulose) (HPC) 100 % of control and 104 % of control | [8] 111 % of control | [1] 103 % of control | dose: 200.0 mg/kg/injection, schedule: Q01DX001 (ip), vehicle: Klucel (hydroxypropylcellulose) (HPC) 95 % of control | dose: 200.0 mg/kg/injection, schedule: Q01DX009 (ip), vehicle: Klucel (hydroxypropylcellulose) (HPC) 103 % of control and 115 % of control | [9] 94 % of control and 115 % of control | [2] 105 % of control | dose: 400.0 mg/kg/injection, schedule: Q01DX001 (ip), vehicle: Klucel (hydroxypropylcellulose) (HPC) 89 % of control | dose: 400.0 mg/kg/injection, schedule: Q01DX009 (ip), vehicle: Klucel (hydroxypropylcellulose) (HPC) 88 % of control | dose: 400.0 mg/kg/injection, schedule: Q04DX002 (ip), vehicle: Klucel (hydroxypropylcellulose) (HPC) 98 % of control and 99 % of control | dose: 400.0 mg/kg/injection, schedule: Q04DX003 (ip), vehicle: Klucel (hydroxypropylcellulose) (HPC) 103 % of control

Cc1c([N+](=O)[O-])cc(C(C)(C)C)c(OC(=O)C(Cl)(Cl)Cl)c1[N+](=O)[O-]
inactive: [8] 95 % of control | [9] 91 % of control
